From patent US12497396B2, “Nitrogen-containing heterocyclic derivatives, method therefor and application therefor as inhibitors of KRAS G12C for the treatment of cancers” (SHANGHAI HANSOH BIOMEDICAL CO., LTD., priority 2019, dated 2025)
Read-outs that look alike come from different tables or passages of the source.

How the values were obtained:
[1] = tested on: human pancreatic cancer cell MiaPaca 2 xenograft; test: Tumor inhibition on MiaPaca 2 transplanted tumor (CDX) model; type: in vivo, BALB/c nude mice; details: for TGI (%) Day 21 / tumor volume (mm^3, Mean ± SD) Day 21 / ΔT/ΔC(%) Day 21: Day 21, 6 mg/kg QD×3 w oral; for tumor volume (mm^3, Mean ± SD) Day 0: baseline Day 0, 6 mg/kg QD×3 w oral
Protocol: MiaPaca 2 cells were removed from the cell bank, revived and added to DMEM medium (containing 10% FBS, 1% Glu, 1% P/S) and incubated in a CO2 incubator (incubator temperature was 37° C., CO2 concentration was 5%). After the cells were spread to 80-90% of the bottom of the culture flask, the cells were continued to be cultured in the CO2 incubator. The process was repeated until the number of cells met the in vivo pharmacological inoculation requirement, and the cells in logarithmic growth period were collected and counted with an automatic cell counter, resuspended with PBS and Matrigel (volume ratio 1:1) according to the count results, made into a cell suspension (the density was 8×10^7/mL), and placed in an ice box for use.
BALB/c nude mice, female, 6-8 weeks old, weighing about 18-22 g. The mice were kept in an environment free of special pathogens and in a single ventilated cage with 5 mice in each cage. All cages, bedding and water were sterilized before use, and all animals had free access to standard certified commercial laboratory diets. Nude mice were labeled with disposable universal ear tags for mice and rats before the start of the experiment, and the skin of the inoculation site was disinfected with 75% medical alcohol before inoculation, 0.1 mL (containing 8*10^6 cells) of MiaPaca 2 tumor cells were inoculated subcutaneously on the right back of each mouse. When the tumor volume reached 100-200 mm^3, the group administration was started. The tested compounds were administered daily by oral intragastric administration, dosage/frequency (6 mg/kg QD×3 w), and the efficacy of each group at the end of the experiment was shown in Table 29.
The tumor volume (mm^3) was measured with vernier caliper twice a week, the calculation formula was V=[…], wherein D and d were the long and short diameter of the tumor, respectively. The anti-tumor efficacy was determined by dividing the average tumor increased volume of the compound-treated animals by the average tumor increased volume of the untreated animals. The formula of tumor inhibition rate is: TGI (%)=1−[(Vt−V0) administration group/(Vt−V0) solvent control group]*100%. After the experiment, all animals were euthanized.

CYP2C19 = molecular target: T1, CYP2C19 (Homo sapiens, UniProt P33261); test: CYP enzyme single point inhibition, human liver microsomes, 2C19; type: in vitro ADME; details: single point method
T1 construct: from tissue; host or cells: human liver microsomes
Protocol: (§1) Using human liver microsomal incubation system, the inhibition of CYP450 enzyme subtypes by compounds was rapidly predicted by single point method.
(§2) 2.5 mM NADPH: 100 mM phosphate buffer was added to 4.165 mg of NADPH (reduced nicotinamide adenine dinucleotide phosphate) to 2 mL. 0.25 mg/mL microsome: 4 mL of 100 mM phosphate buffer was added to 50 μL of 20 mg/mL microsome and mixed well.
(§3) The embodiment compound to be tested was weighed and diluted to 10 mM with DMSO and then diluted to 100 μM with 100 mM phosphate buffer.
(§4) • 1. In a 96-well plate, 40 μL of liver microsomes, 10 μL of substrate, 10 μL of compound to be tested were pre-incubated for 3 min. • 2. 40 μL of NADPH was added. • 3. 300 μL of acetonitrile termination solution containing internal standard was added at 20 min. • 4. Centrifugal injection.

CYP2D6 = molecular target: T2, CYP2D6 (Homo sapiens, UniProt P10635); test: CYP enzyme single point inhibition, human liver microsomes, 2D6; type: in vitro ADME; details: single point method
T2 construct: from tissue; host or cells: human liver microsomes
Protocol: as §1, §2, §3, §4

CYP3A4 = molecular target: T3, CYP3A4 (Homo sapiens, UniProt P08684); test: CYP enzyme single point inhibition, human liver microsomes, 3A4; type: in vitro ADME; details: single point method
T3 construct: from tissue; host or cells: human liver microsomes
Protocol: as §1, §2, §3, §4

in vitro = in vitro ADME; details: for half-life at 0.5 μM: plasma
Protocol: (§5) Animal or human whole blood was collected, then the blood was put into a test tube containing anticoagulant, centrifuged at 3500 rpm for 10 min, and the upper layer of pale yellow plasma was collected. • 2), 10 μM of tested compound (m/M/V=C)
(§6) The compound was weighed, the stock solution was prepared with DMSO and the working solution was prepared with 100 mM phosphate buffer. • 3), 10 μM of positive control (1) Propantheline (Propantheline Mr=449.4 Da)
(§7) • 1) 285 μL of plasma and 15 μL of 10 μM compound (tested compound) were added in turn in a 96-well plate, and incubated at 37° C. • 2) 40 μL was taken out at 0, 15, 30, 60, 90, 120 min, respectively, and 160 μL of acetonitrile termination solution containing internal standard was added. • 3) After centrifugation (3500 rpm, 10 min), 50 μL of supernatant was taken out, and then diluted with 50 μL DDH2O and injected to LC-MS/MS.
(§8) • Instrument: Shimadzu LC-20 AD • Chromatographic column: phenomenex Gemiu® C18 (50*4.6 mm, 5 μM particle size); • mobile phase: A: acetonitrile, B: 0.1% formic acid solution […], 2.0-2.1 min: 90% A→5% A; flow rate: 0.8 mL/min; running time: 5.0 min; injection volume: 5 μL.
(§9) • Instrument: API4000 Liquid Chromatography-Mass Spectrometry, AB, USA; • the ion source was electrospray ionization source (ESI); • the temperature of dry gas (N2) was 500° C.; • electrospray voltage was 5500V; • the detection method was positive ion detection; • the scanning mode was selective response monitoring (MRM). • the scanning time was 0.1 s.

[2] = Plasma stability, rat plasma; type: in vitro ADME; details: for Residual rate (%) 0 min / Residual rate (%) 15 min / Residual rate (%) 30 min / Residual rate (%) 60 min / Residual rate (%) 120 min: rat plasma, 37° C.; for half-life at 0.5 μM: rat, plasma
Protocol: as §5, §6, §7, §8, §9

[3] = Plasma stability, dog plasma; type: in vitro ADME; details: for Residual rate (%) 0 min / Residual rate (%) 15 min / Residual rate (%) 30 min / Residual rate (%) 60 min / Residual rate (%) 120 min: dog plasma, 37° C.; for half-life at 0.5 μM: dog, plasma
Protocol: as §5, §6, §7, §8, §9

[4] = 3A4-M, read-out: IC50 (nM) 3A4-M
[5] = 3A4-T, read-out: IC50 (nM) 3A4-T

T3 sequence (P08684 whole entry): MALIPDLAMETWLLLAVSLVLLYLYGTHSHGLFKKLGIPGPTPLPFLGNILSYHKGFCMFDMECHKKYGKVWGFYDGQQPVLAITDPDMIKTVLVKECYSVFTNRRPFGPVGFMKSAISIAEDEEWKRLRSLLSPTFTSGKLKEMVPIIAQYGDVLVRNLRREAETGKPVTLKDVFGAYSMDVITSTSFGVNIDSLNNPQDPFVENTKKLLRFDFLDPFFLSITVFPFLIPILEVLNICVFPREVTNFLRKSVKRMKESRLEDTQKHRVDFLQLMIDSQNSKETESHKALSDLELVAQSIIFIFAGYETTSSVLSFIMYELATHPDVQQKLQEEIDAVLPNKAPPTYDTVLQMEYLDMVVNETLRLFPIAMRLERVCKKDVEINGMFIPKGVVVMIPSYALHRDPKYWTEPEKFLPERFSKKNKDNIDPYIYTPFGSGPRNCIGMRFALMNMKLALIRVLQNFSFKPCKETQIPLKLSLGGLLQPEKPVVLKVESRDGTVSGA
T2 sequence (P10635 whole entry): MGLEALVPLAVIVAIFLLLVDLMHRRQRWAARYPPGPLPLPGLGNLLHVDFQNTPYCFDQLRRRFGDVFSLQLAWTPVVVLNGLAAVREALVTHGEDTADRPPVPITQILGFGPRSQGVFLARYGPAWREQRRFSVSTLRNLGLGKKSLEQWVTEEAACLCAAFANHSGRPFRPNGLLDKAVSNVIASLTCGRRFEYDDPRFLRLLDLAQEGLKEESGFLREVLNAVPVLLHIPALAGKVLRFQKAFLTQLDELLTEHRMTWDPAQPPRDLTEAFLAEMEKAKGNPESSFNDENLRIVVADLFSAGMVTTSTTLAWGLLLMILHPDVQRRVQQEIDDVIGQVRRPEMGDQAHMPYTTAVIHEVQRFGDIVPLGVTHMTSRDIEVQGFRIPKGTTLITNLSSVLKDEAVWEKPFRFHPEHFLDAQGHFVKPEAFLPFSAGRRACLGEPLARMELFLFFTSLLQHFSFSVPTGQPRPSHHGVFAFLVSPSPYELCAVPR
T1 sequence (P33261 whole entry): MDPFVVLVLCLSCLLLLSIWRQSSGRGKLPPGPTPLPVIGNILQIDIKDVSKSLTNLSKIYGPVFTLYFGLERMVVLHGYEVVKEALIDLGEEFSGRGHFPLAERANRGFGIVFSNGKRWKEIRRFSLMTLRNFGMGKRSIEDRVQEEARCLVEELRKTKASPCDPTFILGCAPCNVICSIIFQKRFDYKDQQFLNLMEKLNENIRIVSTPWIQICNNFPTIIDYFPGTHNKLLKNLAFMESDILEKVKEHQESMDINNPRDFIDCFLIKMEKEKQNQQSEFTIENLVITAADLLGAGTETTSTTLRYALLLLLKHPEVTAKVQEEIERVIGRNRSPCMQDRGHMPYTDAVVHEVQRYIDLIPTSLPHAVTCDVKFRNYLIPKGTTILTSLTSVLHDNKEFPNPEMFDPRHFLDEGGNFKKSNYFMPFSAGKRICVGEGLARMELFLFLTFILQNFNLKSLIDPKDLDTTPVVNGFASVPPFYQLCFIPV

Row | Compound | TGI (%) Day 21 [1] [%] | tumor volume (mm^3, Mean ± SD) Day 21 [1] [mm^3] | ΔT/ΔC(%) Day 21 [1] [%] | tumor volume (mm^3, Mean ± SD) Day 0 [1] [mm^3] | IC50 (CYP2C19) [nM] | IC50 (CYP2D6) [nM] | IC50 (CYP3A4; [4]) [nM] | IC50 (CYP3A4; [5]) [nM] | Residual rate (%) 0 min (in vitro; human, 0.5 μM) [%] | Residual rate (%) 15 min (in vitro; human, 0.5 μM) [%] | Residual rate (%) 30 min (in vitro; human, 0.5 μM) [%] | Residual rate (%) 60 min (in vitro; human, 0.5 μM) [%] | Residual rate (%) 120 min (in vitro; human, 0.5 μM) [%] | half-life at 0.5 μM (in vitro; human) [h] | half-life at 0.5 μM (in vitro; mouse) [h] | Residual rate (%) 0 min [2] [%] | Residual rate (%) 15 min [2] [%] | Residual rate (%) 30 min [2] [%] | Residual rate (%) 60 min [2] [%] | Residual rate (%) 120 min [2] [%] | further results
1 | C=CC(=O)N1C[C@H](C)N(c2nc(=O)n(-c3c(SC)ccnc3C(C)C)c3nc(-c4c(O)cccc4F)c(F)cc23)C[C@H]1C (single isomer, unassigned) [Embodiment 114-1] | 162.36 | 67 ± 34 | −62.36 | 177 ± 38 | > 100 | > 100 | 19 | > 100 | – | – | – | – | – | – | – | – | – | – | – | – | –
2 | C=CC(=O)N1C[C@H](C)N(c2nc(=O)n(-c3c(SC)ccnc3C(C)C)c3nc(-c4c(O)cccc4F)c(Cl)cc23)C[C@H]1C (single isomer, unassigned) [Embodiment 166-1] | – | – | – | – | – | – | – | – | 100.00 | 99.15 | 94.74 | 89.14 | 78.85 | 5.64 | 7.75 | 100.00 | 93.20 | 98.32 | 99.08 | 96.46 | Residual rate (%) 0 min (in vitro; mouse plasma, 37° C.): 100.00%; Residual rate (%) 15 min (in vitro; mouse plasma, 37° C.): 105.42%; Residual rate (%) 30 min (in vitro; mouse plasma, 37° C.): 100.02%; Residual rate (%) 60 min (in vitro; mouse plasma, 37° C.): 99.12%; Residual rate (%) 120 min (in vitro; mouse plasma, 37° C.): 85.55%; half-life at 0.5 μM [2]: 108 h; Residual rate (%) 0 min [3]: 100.00%; Residual rate (%) 15 min [3]: 99.98%; Residual rate (%) 30 min [3]: 98.79%; Residual rate (%) 60 min [3]: 93.69%; Residual rate (%) 120 min [3]: 86.16%; half-life at 0.5 μM [3]: 8.88 h
3 | C=CC(=O)N1C[C@H](C)N(c2nc(=O)n(-c3c(SC)ccnc3C(C)C)c3nc(-c4c(N)ccc(Cl)c4F)c(Cl)cc23)C[C@H]1C (single isomer, unassigned) [Embodiment 165-1] | 176.76 | 41 ± 19 | −76.76 | 178 ± 34 | 28.8 | 21.2 | 4.7 | 9.1 | 100.00 | 102.34 | 100.28 | 90.27 | 87.22 | 8.35 | 16.9 | 100.00 | 95.57 | 96.73 | 93.97 | 91.93 | Residual rate (%) 0 min (in vitro; mouse, 0.5 μM): 100.00%; Residual rate (%) 15 min (in vitro; mouse, 0.5 μM): 100.58%; Residual rate (%) 30 min (in vitro; mouse, 0.5 μM): 99.52%; Residual rate (%) 60 min (in vitro; mouse, 0.5 μM): 99.64%; Residual rate (%) 120 min (in vitro; mouse, 0.5 μM): 92.32%; half-life at 0.5 μM [2]: 19.3 h; Residual rate (%) 0 min [3]: 100.00%; Residual rate (%) 15 min [3]: 97.71%; Residual rate (%) 30 min [3]: 96.32%; Residual rate (%) 60 min [3]: 94.86%; Residual rate (%) 120 min [3]: 92.49%; half-life at 0.5 μM [3]: 19.6 h
